Test results reported in patent US20240309014A1, “MACROCYCLIC COMPOUNDS AND USES THEREOF” (President and Fellows of Harvard College, priority 2017, published 2024).

Key:
[1] = system: BJ normal human fibroblasts stimulated with TGF-β; experiment: TGF-β-treated BJ cells, in vitro CAF-inducing system; format: cell-based
Procedure: FIG. 19A. BJ cells (normal human […] fibroblasts) were co-cultured with FaDu cells for three days in the absence (vehicle) or presence of A83-01, a potent selective TGF-β-R inhibitor, and the expression of α-SMA was analysed by immunofluorescence staining (red color). Samples were also stained with anti-pan-human cytokeratin (green color) for cancer cell staining and DAPI (blue color) for nuclear staining. FIGS. 19B-19E BJ cells were treated with Compound (1) (0.15 nmol/L in immunofluorescence staining data and indicated concentrations in western blot analysis data) and TGF-β for 2 days. FIGS. 19B-19E. Samples were stained with the indicated antibody (red color) and DAPI (blue color) for nuclear staining. FIG. 19E Western blot images and quantification of the images. […] FIGS. 19G and 19E BJ cells were pretreated with defactinib (1 μmol/L) and TGF-β for 2 days. The lens magnification used was x4 (FIGS. 19A, 19B, 19C, 19G, and 19H) or x40 (FIGS. 19D and 19E).
FIGS. 20A and 20B. Quantification of immunofluorescence images of BJ cells treated with TGF-β(1 ng/mL) and the indicated concentrations of Compound (1) for α-SMA (FIG. 20A), Phospho-S6-ribosomal protein (Ser235/236) (FIG. 20B). FIG. 20C. Immunofluorescence analysis of BJ cells treated with TGF-β in the absence or presence of dactolisib, a phosphatidylinositol 3 kinase inhibitor. FIG. 20D. Immunofluorescence analysis of phosphorylated Smad⅔ in BJ cells pretreated with Compound (1) (72 hours) after 30 minutes of stimulation with TGF-β. Acetylated-α-tubulin was co-stained to confirm the activity of Compound (1). FIG. 20E. Western blot analysis of Smad⅔ in BJ cells treated with TGF-β and the indicated concentrations of Compound (1). The lens magnification used was x4 (FIG. 20C) or x40 (FIG. 20D).
The expression of α-SMA was induced in BJ normal human fibroblasts upon co-cultivation with FaDu cells, and the expression was attenuated by treatment with A83-01, a potent selective inhibitor of the TGF-β-receptor (FIG. 19A).
Under the same experimental conditions, the enhanced formation of focal adhesions, which were detected as punctate structures with an antibody against phosphorylated FAK at tyrosine-397, after stimulation with TGF-β was decreased in BJ cells by treatment with Compound (1) (FIG. 19E). Many signalling complexes are assembled in focal adhesion sites, and those complexes dispatch several downstream signals, including those involved in the PI3K/AKT/mTOR pathway. See, e.g., Sulzmaier et. al. “FAK in cancer: mechanistic findings and clinical applications”, Nature Reviews Cancer 2014, 14, 598-610.

[2] = system: human bladder carcinoma cell line RT112/84; experiment: Bladder carcinoma cell line growth inhibition assay, RT112/84; format: cell-based; details: RT112/84, 72 h, 3 days incubation, CellTiter-Glo 2.0
Procedure: In this assay, the growth inhibitory activity of Compound (1) in human bladder carcinoma cell lines RT4, RT112/84, and UM-UC-3 was measured. RT4 and RT112/84 cells were maintained in a RPMI-1640 (FUJIFILM Wako Pure Chemical Corporation, 189-02025) medium containing 10% fetal bovine serum (FBS: SIGMA Life Science, 172012-500ML), and penicillin and streptomycin (FUJIFILM Wako Pure Chemical Corporation, 168-23191) in a 5% CO2 incubator (37° C.). UM-UC-3 cells were maintained in an E-MEM (FUJIFILM Wako Pure Chemical Corporation, 051-07615) medium containing 10% FBS, 1 mM Sodium Pyruvate (FUJIFILM Wako Pure Chemical Corporation, 190-14881), and penicillin and streptomycin in a 5% CO2 incubator (37° C.). To each well of a 96 well plate (Coming, 3904), 90 μL of each cell suspension adjusted to a concentration of 5.55×10^3 cells/mL (RT4 or UM-UC-3) or 3.33×10^4 cells/mL (RT112/84) with the culture medium was added, and the cells were incubated overnight in a 5% CO2 incubator (37° C.). On the next day, 10 μL of Compound (1) in three-fold dilution series suspended in the culture medium was added to each well, and the resultant was incubated for 3 days in a 5% CO2incubator (37° C.). Then, cell viability was determined by CellTiter-Glo® 2.0 Assay (Promega Corporation, G9243) with ARVO-X4 Multimode Plate Reader (Perkin-Elmer, Wellesley, MA). […]

[3] = system: human fibrosarcoma cell line HT-1080 xenograft; experiment: HT-1080 xenograft as monotherapy (FIG. 17); format: in vivo, athymic mice; details: 180 μg/kg i.v. Day 1 and Day 8
Procedure: A human fibrosarcoma cell line HT-1080, which had been cultured in an E-MEM containing 10% FBS, NEAA and antibiotics was adjusted to a concentration of 3×10^7 cells/mL with medium to prepare a cell suspension. The cell suspension was inoculated in a volume of 100 μL into a subcutaneous part of a right flank of athymic mice (CAnN.Cg-Foxnlnu/CrlCrlj, female, 6 weeks old, Charles River Japan Inc.). Six days after cell inoculation (Day 1), the length and the width of a tumor in each mouse were measured by using an electronic digital caliper (Mitutoyo Corporation), so as to calculate the volume of the tumor in accordance with the following calculation formula: […]
On the basis of TV, the mice were randomly grouped (Day 1). Each group was consisted in six mice. Compound (1) was dissolved in DMSO and a solution was stored in the freezer before use. Compound (1) (180 μg/kg) was diluted with saline and intravenously injected on Day 1 and Day 8.

C=C1C[C@@H]2CC[C@@]34C[C@H]5O[C@H]6[C@@H](O3)[C@H]3O[C@H](CC[C@@H]3O[C@H]6C5O4)CC(=O)O[C@@H]3[C@@H](C)[C@@H]4O[C@@H]5C[C@]6(C[C@@H]7O[C@]8(C[C@H](C)[C@@H]9O[C@H](CN)[C@H](O)C[C@@H]9O8)C[C@H](C)[C@@H]7O6)O[C@@H]5C[C@@H]4O[C@H]3C[C@H]3O[C@@H](CC[C@@H]1O2)C[C@@H](C)C3=C (stereo in doubt) [Compound (1)]
TGF-β-induced phosphorylation and nuclear localization of Smad⅔ ([1]; BJ cells): did not significantly change | enhanced formation of focal adhesions (phosphorylated FAK at tyrosine-397) ([1]; BJ cells after stimulation with TGF-β): decreased | activation of the PI3K/AKT/mTOR pathway ([1]; BJ cells treated with TGF-β): reduce the activation of the PI3K/AKT/mTOR pathway | TGF-β-enhanced P3-tubulin expression and microtubule network formation ([1]; BJ cells, co-treatment with TGF-β): diminished | α-SMA induction by TGF-β ([1]; BJ cells, immunofluorescence, 2 days): interfered with α-SMA induction by TGF-β in BJ cells without growth inhibitory activity | IC50 [2]: 0.0497 nM | antitumor activity [3]: tumor regression
